{"source": "patent US20250312462A1", "about": "“PAK1 DEGRADERS AND METHODS OF USE THEREOF” (INSTITUTE FOR CANCER RESEARCH D/B/A THE RESEARCH INSTITUTE …, priority 2022, published 2025)", "key": {"[1]": {"target": "RSK3(Kin.Dom.2-C-terminal) (Homo sapiens, UniProt Q15349)", "assay": "KINOMEscan", "details": "read-out: Percent Control", "description": "(§1) The kinase engagement assay (KINOMEscan®) was performed by DiscoverX assessing binding abilities toward a set of kinases."}, "FGFR3(G697C)": {"target": "FGFR3(G697C) (Homo sapiens, UniProt P22607, G697C)", "assay": "KINOMEscan", "details": "read-out: Percent Control", "description": "as §1"}, "TAK1": {"target": "TAK1 (Homo sapiens, UniProt O43318)", "sequence (O43318 whole entry)": "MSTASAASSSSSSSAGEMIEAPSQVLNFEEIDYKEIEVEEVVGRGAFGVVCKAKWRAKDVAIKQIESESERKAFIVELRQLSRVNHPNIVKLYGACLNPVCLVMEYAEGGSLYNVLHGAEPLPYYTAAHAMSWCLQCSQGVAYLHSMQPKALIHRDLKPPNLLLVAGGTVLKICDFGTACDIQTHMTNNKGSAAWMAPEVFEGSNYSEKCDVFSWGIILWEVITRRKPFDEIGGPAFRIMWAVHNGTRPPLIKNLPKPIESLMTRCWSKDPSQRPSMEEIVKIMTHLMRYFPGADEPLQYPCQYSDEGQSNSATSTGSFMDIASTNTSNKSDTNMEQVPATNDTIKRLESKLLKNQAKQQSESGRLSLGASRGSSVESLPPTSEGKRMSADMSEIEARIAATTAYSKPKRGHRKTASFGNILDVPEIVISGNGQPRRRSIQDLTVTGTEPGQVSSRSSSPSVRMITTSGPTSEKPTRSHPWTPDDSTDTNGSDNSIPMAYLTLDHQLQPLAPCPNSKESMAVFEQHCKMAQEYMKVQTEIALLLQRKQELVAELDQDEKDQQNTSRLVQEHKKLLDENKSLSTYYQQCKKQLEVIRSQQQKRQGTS", "assay": "KINOMEscan", "details": "read-out: Percent Control", "description": "as §1"}, "PIK3CA(E545A)": {"target": "PIK3CA(E545A) (Homo sapiens, UniProt P42336, E545A)", "assay": "KINOMEscan", "details": "read-out: Percent Control", "description": "as §1"}, "PLK1": {"target": "PLK1 (Homo sapiens, UniProt P53350)", "assay": "KINOMEscan", "details": "read-out: Percent Control", "description": "as §1"}, "WNK1": {"target": "WNK1 (Homo sapiens, UniProt Q9H4A3)", "assay": "KINOMEscan", "details": "read-out: Percent Control", "description": "as §1"}, "SRPK1": {"target": "SRPK1 (Homo sapiens, UniProt Q96SB4)", "sequence (Q96SB4 whole entry)": "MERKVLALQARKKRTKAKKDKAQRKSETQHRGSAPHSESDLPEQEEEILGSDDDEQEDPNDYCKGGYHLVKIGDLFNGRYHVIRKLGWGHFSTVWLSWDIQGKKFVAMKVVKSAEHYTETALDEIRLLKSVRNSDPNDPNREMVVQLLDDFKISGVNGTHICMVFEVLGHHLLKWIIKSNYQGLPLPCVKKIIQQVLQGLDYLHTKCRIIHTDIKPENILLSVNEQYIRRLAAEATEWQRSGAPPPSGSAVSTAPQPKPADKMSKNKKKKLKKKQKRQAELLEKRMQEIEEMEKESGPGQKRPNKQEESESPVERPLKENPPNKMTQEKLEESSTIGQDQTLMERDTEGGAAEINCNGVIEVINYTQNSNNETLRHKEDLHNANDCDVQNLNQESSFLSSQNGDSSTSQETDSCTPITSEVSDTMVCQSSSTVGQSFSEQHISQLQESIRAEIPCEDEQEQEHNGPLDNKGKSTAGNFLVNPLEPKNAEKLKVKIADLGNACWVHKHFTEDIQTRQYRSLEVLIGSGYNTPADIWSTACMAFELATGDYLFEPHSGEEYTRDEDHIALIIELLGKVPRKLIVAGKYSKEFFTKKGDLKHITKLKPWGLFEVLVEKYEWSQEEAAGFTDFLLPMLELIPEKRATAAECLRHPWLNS", "assay": "KINOMEscan", "details": "read-out: Percent Control", "description": "as §1"}, "PRKCI": {"target": "PRKCI (Homo sapiens, UniProt P41743)", "assay": "KINOMEscan", "details": "read-out: Percent Control", "description": "as §1"}, "INSRR": {"target": "INSRR (Homo sapiens, UniProt P14616)", "sequence (P14616 27-1297)": "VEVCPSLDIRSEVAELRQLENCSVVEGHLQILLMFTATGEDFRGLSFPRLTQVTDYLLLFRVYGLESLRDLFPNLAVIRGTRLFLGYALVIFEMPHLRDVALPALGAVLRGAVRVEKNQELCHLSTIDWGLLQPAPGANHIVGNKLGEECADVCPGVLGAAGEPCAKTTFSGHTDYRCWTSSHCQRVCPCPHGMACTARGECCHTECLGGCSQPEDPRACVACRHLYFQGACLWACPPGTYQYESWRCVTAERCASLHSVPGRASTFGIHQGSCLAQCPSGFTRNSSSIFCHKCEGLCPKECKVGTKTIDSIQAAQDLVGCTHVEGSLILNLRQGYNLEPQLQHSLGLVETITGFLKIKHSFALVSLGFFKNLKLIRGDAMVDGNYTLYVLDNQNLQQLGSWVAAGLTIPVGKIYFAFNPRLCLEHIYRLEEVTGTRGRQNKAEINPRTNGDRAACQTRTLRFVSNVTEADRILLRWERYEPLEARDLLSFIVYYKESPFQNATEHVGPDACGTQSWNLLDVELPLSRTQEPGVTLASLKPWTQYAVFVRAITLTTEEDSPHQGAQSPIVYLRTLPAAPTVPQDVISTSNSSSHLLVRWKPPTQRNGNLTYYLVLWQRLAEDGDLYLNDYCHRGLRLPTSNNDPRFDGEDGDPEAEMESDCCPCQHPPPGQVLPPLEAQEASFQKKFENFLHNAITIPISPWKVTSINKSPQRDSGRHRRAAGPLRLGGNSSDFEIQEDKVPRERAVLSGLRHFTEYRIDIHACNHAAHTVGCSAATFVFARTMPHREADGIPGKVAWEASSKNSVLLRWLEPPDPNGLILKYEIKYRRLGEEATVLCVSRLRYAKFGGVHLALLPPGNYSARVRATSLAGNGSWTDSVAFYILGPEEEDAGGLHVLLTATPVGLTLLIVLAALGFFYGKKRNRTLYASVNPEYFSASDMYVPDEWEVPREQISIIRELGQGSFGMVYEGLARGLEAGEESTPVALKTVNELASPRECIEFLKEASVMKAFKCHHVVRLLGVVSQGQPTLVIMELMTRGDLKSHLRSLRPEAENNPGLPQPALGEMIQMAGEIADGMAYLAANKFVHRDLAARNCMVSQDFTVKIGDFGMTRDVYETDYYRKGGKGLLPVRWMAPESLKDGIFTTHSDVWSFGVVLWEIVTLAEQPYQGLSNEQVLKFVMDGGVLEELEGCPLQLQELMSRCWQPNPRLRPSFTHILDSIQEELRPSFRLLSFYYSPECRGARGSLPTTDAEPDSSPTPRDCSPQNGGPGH", "assay": "KINOMEscan", "details": "read-out: Percent Control", "description": "as §1"}, "RIOK3": {"target": "RIOK3 (Homo sapiens, UniProt O14730)", "sequence (O14730 whole entry)": "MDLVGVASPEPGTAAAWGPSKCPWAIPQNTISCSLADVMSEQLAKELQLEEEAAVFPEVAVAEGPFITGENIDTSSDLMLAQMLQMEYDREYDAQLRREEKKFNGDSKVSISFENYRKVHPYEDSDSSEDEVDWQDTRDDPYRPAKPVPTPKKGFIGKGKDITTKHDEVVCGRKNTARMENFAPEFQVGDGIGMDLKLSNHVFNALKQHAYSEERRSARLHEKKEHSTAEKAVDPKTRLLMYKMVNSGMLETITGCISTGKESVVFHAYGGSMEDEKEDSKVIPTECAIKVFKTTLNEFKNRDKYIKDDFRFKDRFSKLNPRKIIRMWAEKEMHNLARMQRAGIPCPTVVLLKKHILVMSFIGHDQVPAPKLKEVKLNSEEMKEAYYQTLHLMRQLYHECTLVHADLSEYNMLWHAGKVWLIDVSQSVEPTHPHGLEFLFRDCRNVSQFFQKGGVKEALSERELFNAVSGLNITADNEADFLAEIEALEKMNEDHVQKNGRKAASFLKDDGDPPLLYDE", "assay": "KINOMEscan", "details": "read-out: Percent Control", "description": "as §1"}, "MAP4K5": {"target": "MAP4K5 (Homo sapiens, UniProt Q9Y4K4)", "assay": "KINOMEscan", "details": "read-out: Percent Control", "description": "as §1"}, "PIM2": {"target": "PIM2 (Homo sapiens, UniProt Q9P1W9)", "assay": "KINOMEscan", "details": "read-out: Percent Control", "description": "as §1"}, "FLT3(D835V)": {"target": "FLT3(D835V) (Homo sapiens, UniProt P36888, D835V)", "assay": "KINOMEscan", "details": "read-out: Percent Control", "description": "as §1"}, "CDK7": {"target": "CDK7 (Homo sapiens, UniProt P50613)", "sequence (P50613 whole entry)": "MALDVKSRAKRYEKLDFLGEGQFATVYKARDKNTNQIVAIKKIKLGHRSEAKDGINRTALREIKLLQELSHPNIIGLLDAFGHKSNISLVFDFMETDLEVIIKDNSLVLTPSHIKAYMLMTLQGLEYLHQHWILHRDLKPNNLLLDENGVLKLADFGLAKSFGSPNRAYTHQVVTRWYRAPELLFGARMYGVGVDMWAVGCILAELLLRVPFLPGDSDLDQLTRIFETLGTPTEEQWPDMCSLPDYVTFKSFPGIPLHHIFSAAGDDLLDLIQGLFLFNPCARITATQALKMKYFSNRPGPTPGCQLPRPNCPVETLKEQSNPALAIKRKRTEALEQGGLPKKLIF", "assay": "KINOMEscan", "details": "read-out: Percent Control", "description": "as §1"}, "PRKCH": {"target": "PRKCH (Homo sapiens, UniProt P24723)", "assay": "KINOMEscan", "details": "read-out: Percent Control", "description": "as §1"}, "MAPKAPK2": {"target": "MAPKAPK2 (Homo sapiens, UniProt P49137)", "sequence (P49137 whole entry)": "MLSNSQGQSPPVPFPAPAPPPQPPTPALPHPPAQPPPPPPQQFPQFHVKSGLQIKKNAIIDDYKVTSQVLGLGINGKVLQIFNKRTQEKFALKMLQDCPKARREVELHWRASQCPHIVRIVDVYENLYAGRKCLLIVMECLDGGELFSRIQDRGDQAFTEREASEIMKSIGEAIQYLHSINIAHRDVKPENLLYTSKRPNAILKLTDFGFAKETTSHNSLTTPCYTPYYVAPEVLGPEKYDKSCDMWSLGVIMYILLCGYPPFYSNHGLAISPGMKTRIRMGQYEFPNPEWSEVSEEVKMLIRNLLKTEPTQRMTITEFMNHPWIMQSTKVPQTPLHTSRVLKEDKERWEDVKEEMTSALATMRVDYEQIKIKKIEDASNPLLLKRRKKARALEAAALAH", "assay": "KINOMEscan", "details": "read-out: Percent Control", "description": "as §1"}, "PKN2": {"target": "PKN2 (Homo sapiens, UniProt Q16513)", "assay": "KINOMEscan", "details": "read-out: Percent Control", "description": "as §1"}, "PIK4CB": {"target": "PIK4CB (Homo sapiens, UniProt Q9UBF8)", "assay": "KINOMEscan", "details": "read-out: Percent Control", "description": "as §1"}, "AURKB": {"target": "AURKB (Homo sapiens, UniProt Q96GD4)", "assay": "KINOMEscan", "details": "read-out: Percent Control", "description": "as §1"}, "[2]": {"target": "RSK1(Kin.Dom.1-N-terminal) (Homo sapiens, UniProt Q15418)", "assay": "KINOMEscan", "details": "read-out: Percent Control", "description": "as §1"}, "PFCDPK1(P. falciparum)": {"target": "T1, PFCDPK1(P. falciparum) (Plasmodium falciparum, UniProt P62344)", "T1 construct": "purchased DiscoverX", "assay": "KINOMEscan", "format": "binding", "details": "read-out: Percent Control"}, "CSNK2A1": {"target": "CSNK2A1 (Homo sapiens, UniProt P68400)", "assay": "KINOMEscan", "details": "read-out: Percent Control", "description": "as §1"}, "DYRK1B": {"target": "DYRK1B (Homo sapiens, UniProt Q9Y463)", "sequence (Q9Y463 whole entry)": "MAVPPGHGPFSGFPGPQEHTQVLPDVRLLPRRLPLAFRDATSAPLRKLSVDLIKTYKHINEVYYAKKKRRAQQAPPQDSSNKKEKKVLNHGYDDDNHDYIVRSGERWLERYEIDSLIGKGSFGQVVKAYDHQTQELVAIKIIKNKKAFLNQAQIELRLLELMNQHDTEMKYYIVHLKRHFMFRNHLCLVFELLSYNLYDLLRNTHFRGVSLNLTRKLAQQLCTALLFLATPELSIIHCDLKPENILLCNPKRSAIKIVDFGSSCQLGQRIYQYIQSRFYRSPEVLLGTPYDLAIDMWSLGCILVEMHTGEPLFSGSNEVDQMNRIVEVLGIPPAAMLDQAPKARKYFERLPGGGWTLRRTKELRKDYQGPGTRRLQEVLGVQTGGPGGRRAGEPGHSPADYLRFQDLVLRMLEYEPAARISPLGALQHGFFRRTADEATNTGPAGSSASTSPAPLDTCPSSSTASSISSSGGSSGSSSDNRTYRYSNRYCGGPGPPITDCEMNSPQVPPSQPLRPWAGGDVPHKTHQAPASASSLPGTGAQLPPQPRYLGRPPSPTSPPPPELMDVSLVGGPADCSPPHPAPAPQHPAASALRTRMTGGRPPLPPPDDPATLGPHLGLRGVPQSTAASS", "assay": "KINOMEscan", "details": "read-out: Percent Control", "description": "as §1"}, "CASK": {"target": "CASK (Homo sapiens, UniProt O14936)", "assay": "KINOMEscan", "details": "read-out: Percent Control", "description": "as §1"}, "PAK2": {"target": "PAK2 (Homo sapiens, UniProt Q13177)", "sequence (Q13177 whole entry)": "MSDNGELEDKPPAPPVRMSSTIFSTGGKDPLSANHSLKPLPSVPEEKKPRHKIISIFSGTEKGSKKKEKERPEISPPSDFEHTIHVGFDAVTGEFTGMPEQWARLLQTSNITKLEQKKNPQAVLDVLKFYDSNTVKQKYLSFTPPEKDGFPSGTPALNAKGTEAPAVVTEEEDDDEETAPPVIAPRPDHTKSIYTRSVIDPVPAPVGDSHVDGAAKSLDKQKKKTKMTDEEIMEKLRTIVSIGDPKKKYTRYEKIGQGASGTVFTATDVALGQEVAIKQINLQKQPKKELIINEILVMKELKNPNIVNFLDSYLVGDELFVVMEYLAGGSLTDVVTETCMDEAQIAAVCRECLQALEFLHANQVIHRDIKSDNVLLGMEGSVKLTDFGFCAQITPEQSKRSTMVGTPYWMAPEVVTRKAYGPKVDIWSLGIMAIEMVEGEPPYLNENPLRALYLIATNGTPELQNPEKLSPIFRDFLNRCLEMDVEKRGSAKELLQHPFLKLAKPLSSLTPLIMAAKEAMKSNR", "assay": "PAK2 degradation in MCF7 and OVCAR3 cells, immunoblot", "format": "cell-based", "parameters": "due to their high expression of both PAK1 and PAK2; endogenous in cells; host or cells: MCF7, OVCAR3", "method": "[…]. Cells were incubated overnight then treated with various concentrations of Pak degraders alone or together with bortezomib or lenalidomide for 24 hours. Protein lysates were harvested at the times specified.\nCells were washed once in PBS and lysed in RIPA buffer (50 mM Tris-HCl, 150 mM NaCl, 0.25% (w/v) sodium deoxycholate, 1% (w/v) NP-40, pH 7.5) containing protease inhibitor cocktail (Roche) and phosphatase inhibitor cocktail (Roche) for 30 minutes on ice. Cell lysates were obtained by centrifugation at 13,500 rpm for 15 minutes at 4° C. BCA protein assay (Thermo Scientific) was used to determine protein concentration then equal amounts of total proteins were separated by SDS-PAGE (Bio-Rad) and transferred to PVDF membrane (Thermo Scientific) at 100V for 2 hours. Membranes were blocked in 5% (w/v) non-fat dry milk in tris-buffered saline with 0.1% Tween-20 (TBS-T) for 1 hour and incubated with primary antibody at 4° C. for overnight. […]\nAfter verifying that BJG-05-039 retained specificity for PAK1, its degradation activity in cells was characterized. First, the PAK1 degrader was evaluated in the breast cancer cell line MCF7 and the ovarian cancer cell line OVCAR3 due to their high expression of both PAK1 and PAK2 and their known dependence on PAK1 (Prudnikova, et al. (2016) Oncogene 35:2178-2185; Shrestha, et al. (2012) Oncogene 31:3397-3408). […]"}, "MUSK": {"target": "MUSK (Homo sapiens, UniProt O15146)", "assay": "KINOMEscan", "details": "read-out: Percent Control", "description": "as §1"}}, "data": [{"smiles": "O=C1CCC(N2C(=O)c3cccc(NCCCCCCCCNC(=O)N4CC[C@H](NC5=Nc6cc(F)ccc6N(CC(F)F)c6ccc(Cl)cc65)C4)c3C2=O)C(=O)N1", "note": "(stereo partly drawn) [BJG-05-039, (3S)-3-((2-Chloro-5-(2,2-difluoroethyl)-8-fluoro-5H-dibenzo[b,e][1,4]diazepin-11-yl)amino)-N-(8-((2-(2,6-dioxopiperidin-3-yl)-1,3-dioxoisoindolin-4-yl)amino)octyl)pyrrolidine-1-carboxamide]", "values": [{"measurement": "remaining binding at 10 µM", "setting": "[1]", "value": 51, "unit": "%"}, {"measurement": "remaining binding at 10 µM", "setting": "FGFR3(G697C)", "value": 95, "unit": "%"}, {"measurement": "remaining binding at 10 µM", "setting": "TAK1", "value": 100, "unit": "%"}, {"measurement": "remaining binding at 10 µM", "setting": "PIK3CA(E545A)", "value": 100, "unit": "%"}, {"measurement": "remaining binding at 10 µM", "setting": "PLK1", "value": 82, "unit": "%"}, {"measurement": "remaining binding at 10 µM", "setting": "WNK1", "value": 74, "unit": "%"}, {"measurement": "remaining binding at 10 µM", "setting": "SRPK1", "value": 87, "unit": "%"}, {"measurement": "remaining binding at 10 µM", "setting": "PRKCI", "value": 100, "unit": "%"}, {"measurement": "remaining binding at 10 µM", "setting": "INSRR", "value": 65, "unit": "%"}, {"measurement": "remaining binding at 10 µM", "setting": "RIOK3", "value": 84, "unit": "%"}, {"measurement": "remaining binding at 10 µM", "setting": "MAP4K5", "value": 59, "unit": "%"}, {"measurement": "remaining binding at 10 µM", "setting": "PIM2", "value": 82, "unit": "%"}, {"measurement": "remaining binding at 10 µM", "setting": "FLT3(D835V)", "value": 76, "unit": "%"}, {"measurement": "remaining binding at 10 µM", "setting": "CDK7", "value": 100, "unit": "%"}, {"measurement": "remaining binding at 10 µM", "setting": "PRKCH", "value": 94, "unit": "%"}, {"measurement": "remaining binding at 10 µM", "setting": "MAPKAPK2", "value": 60, "unit": "%"}, {"measurement": "remaining binding at 10 µM", "setting": "PKN2", "value": 65, "unit": "%"}, {"measurement": "remaining binding at 10 µM", "setting": "PIK4CB", "value": 78, "unit": "%"}, {"measurement": "remaining binding at 10 µM", "setting": "AURKB", "value": 93, "unit": "%"}, {"measurement": "remaining binding at 10 µM", "setting": "[2]", "value": 87, "unit": "%"}, {"measurement": "remaining binding at 10 µM", "setting": "PFCDPK1(P. falciparum)", "value": 98, "unit": "%"}, {"measurement": "remaining binding at 10 µM", "setting": "CSNK2A1", "value": 96, "unit": "%"}, {"measurement": "remaining binding at 10 µM", "setting": "DYRK1B", "value": 100, "unit": "%"}, {"measurement": "remaining binding at 10 µM", "setting": "CASK", "value": 99, "unit": "%"}, {"measurement": "PAK2 degradation", "setting": "PAK2", "value": "not PAK2"}, {"measurement": "remaining binding at 10 µM", "setting": "MUSK", "value": 60, "unit": "%"}]}]}
